Results: patent publication US8592394B2, “Synthetic derivatives beta glycolipids and compositions thereof for the treatment of pathologic disorders” (Enzo Therapeutics, Inc., priority 2003, dated 2013)

Columns and labels:
[1] = system: liver; conditions: mice, cited from earlier work
[2] = system: B6 splenocytes; experiment: In vitro stimulation of splenocytes: [3H] thymidine incorporation (proliferation); assay type: cell-based, mouse; conditions: 72-h cultures, graded amounts
Method: (§1) Splenocytes were prepared as described above and plated at 2.0×10^5 cells per well in 96-well plates in RPMI-1640 supplemented with 5% FCS, […] 2-mercaptoethanol, 2 mM glutamine, 1% sodium pyruvate, and antibiotics. Titrated volumes of GC, α-GalCer, and ALIB-97 diluted in DMSO were added at final concentrations of 100 ng, 1 μg, and 10 μg/ml. After 72 h of culture, 1 μCi of [^3H] thymidine (Amersham Biosciences) was added to each well, and the cells were cultured for an additional 16 to 18 h. Cells were harvested with a cell harvester (Tomtec, Orange, Conn.), and the uptake of radioactivity was measured with a β-plate reader. To evaluate IFN-γ secretion in vitro, supernatants were harvested after 90 h of culture with glycolipids and stored until the cytokine levels were measured by ELISA.

[3] = system: ob/ob mice; experiment: Serum ALT and AST (hepatic injury) in ob/ob mice; assay type: in vivo; conditions: day 30, 45 μg per os daily, vehicle group A 710
Method: The effect of β-glycolipids on liver injury was evaluated by serum aspartyl transaminase (AST) and alanine aminotransferase (ALT) activities, which were determined by a clinical chemistry analyzer, Reflovet Plus (Roche Diagnostics, GmbH, Mannheim, Germany).
(§2) Therefore, five groups of male C57BL/6 Ob/Ob mice were studied. Mice (6 per group) were fed (per os) daily for 4 weeks with 15 or 45 μg of GC (groups B and C, respectively) and 15 or 45 μg of ALIB-97 (groups D and E, respectively). Control mice (Group A) were administered vehicle only.

[4] = system: mouse splenocytes; experiment: In vitro stimulation of splenocytes: supernatant IFN-γ by ELISA; assay type: cell-based; conditions: CD1d−/− splenocytes
Method: as §1

[5] = humans, preliminary data; cited from earlier work
[6] = system: fat-associated T cells; experiment: Flow cytometry of T cell subsets in adipose tissue, stromal vascular cells and spleen of ob/ob mice; assay type: in vivo; conditions: 15 and 45 μg per os daily 4 weeks
Method: Splenocytes and intrahepatic lymphocytes were isolated as follows: livers and spleens were kept in RPMI-1640+FCS. Then spleens were crushed through a 70 μm nylon cell strainer (Falcon) and centrifuged (1250 rpm for 7 min) for the removal of cell debris. Red blood cells were lysed with 1 ml of cold 155 mM ammonium chloride lysis buffer and centrifuged (1250 rpm for 3 min). Splenocytes were resuspended with 1 ml RPMI+FCS. Cell viability by trypan blue staining was above 90%. For intrahepatic lymphocytes, livers were crushed through a stainless mesh (size 60, Sigma) and the cell suspension was placed in a 50-ml tube for 5 min. Lymphoprep (10 ml, Ficoll, Axis-Shield PoC AS, Oslo, Norway) was placed under similar volume of cell suspension in 50-ml tubes. Tubes were centrifuged at 1800 rpm for 18 min. Cells in the interface were collected and centrifuged at 1800 rpm for 10 min, to obtain a pellet of cells depleted of hepatocytes to a final volume of 250 μl. Approximately 1×10^6 cells/mouse liver, were recovered.
Adipose tissue (visceral fat pads) was minced and incubated in Krebs-Ringer bicarbonate buffer (3 mL/g adipose tissue) containing 10mM glucose and 2.5% bovine serum albumin, incubated with 840 U/g collagenase type I (Sigma, Rehovot, Israel)) at 37° C. for 1 hour. Cells were filtered twice through chiffon mesh (100 μm) and centrifuged 50 g for 5 min. Floating adipocytes were separated from pelleted S/V fraction. The infranatant fraction was removed and centrifuged at 200 g for five minutes to pellet the S/V cells.
For metabolic syndrome experiments, the following antibodies were used for flow cytometry: anti-CD4-Pacific Blue, anti-CD8-FITC, anti-IL-17-PE, anti CD25-PercP-Cy5.5 and anti FOX3p PE-Cy725 (all from eBioscience, San Diego, Calif.). Surface staining was performed by incubating cells with antibodies and anti-CD16/32 (blocks Fc, eBioscience) at 4° C. in FACS buffer containing PBS and 0.5% BSA, for 30 min. Cells were washed twice with FACS buffer, resuspended in FACS buffer, and analyzed by flow cytometry. Appropriate isotype controls were used in all experiments. Intracellular staining was performed using Foxp3 staining buffer kit (eBioscience, San Diego, Calif.). Cells were incubated with 1 ml Fixation/Permeabilization solution for 50 min, washed twice with Permeabilization buffer and incubated with anti-Foxp3 Ab for 50 min. Cells were then washed twice with Permeabilization buffer and resuspended with FACS buffer. Analysis was performed using a FACSCalibur instrument (Becton Dickinson, San Jose, Calif.) with FCS express V.3 software (DeNovo software, Los Angeles, Calif.).
as §2

[7] = system: JNK2; experiment: Western blot of liver extracts of ob/ob mice: JNK2 activation; assay type: in vivo; conditions: per os daily 4 weeks, 45 μg (group C)
Method: (§3) For analysis of whole tissue lysates, snap-frozen liver pieces were homogenized in 0.75 ml of ice-cold PBS and centrifuged at 4° C. for 5 min in 2000 rpm. Pellets were lysed with 50 mM beta glycerophosphate, 1.5 mM EGTA, PH 7.3, 1 mM EDTA, PH 7.3, 1 mM DTT, 0.1 mM Sodium vanadate, 1% NP-40, and cocktails of protease and phosphatase (Sigma, Rehovot, Israel).
(§4) Lysates were centrifuged twice at 4° C. for 10 minutes in 14000 rpm. Equivalent amounts of lysates (15 μg/lane), determined by Bradford assay (Bio-Rad, Rehovot, Israel), were separated by sodium dodecyl sulfate polyacrylamide gel electrophoresis (SDS-PAGE) and transferred to nitrocellulose membranes.
(§5) For metabolic syndrome experiments, proteins were detected with JNK-2, Phospho JNK (Thr183/Tyr185), Akt and phospho Akt (Ser 473) antibodies (Cell Signaling Technologies, MA). β-actin (abcam, UK) was used as the loading control.
(§6) Blots were developed with horseradish peroxidase-conjugated secondary antibodies (Jackson Laboratories Bar Harbor, Me.) and Western Blot-Luminol Reagent (Santa Cruz Biotechnology, CA, USA). Cell counting and western Blot quantification was performed using total Lab (Phoretix, USA) software.
(§7) Therefore, five groups of male C57BL/6 Ob/Ob mice were studied. […]

[8] = system: ob/ob mice; experiment: Fasting glucose and glucose tolerance test in ob/ob mice; assay type: in vivo
Method: Mice underwent a glucose tolerance test (GTT) on day 30 after overnight fasting. Glucose was administered orally (1.25 g per kg). Serum glucose measurements were performed on tail-vein blood every 15 min for 3 h. Glucose levels were measured by a standard glucometer.
as §2

[9] = system: AKT; experiment: Western blot of liver extracts of ob/ob mice: AKT activation; assay type: in vivo; conditions: per os daily 4 weeks, 45 μg (group C)
Method: as §3, §4, §5, §6, §7

Row | Compound | hepatotoxicity [1] | cell proliferation ([3H] thymidine incorporation) [2] | liver injury ([1]; oral administration) | serum AST [3] [u/L] | IFN-γ secretion [4] | safety and biological activity [5] | CD4+IL17+ / CD4+CD25+ ratio in adipose tissue [6] | CD4IL17/CD4CD25FOXP3 ratio in the SVC [6] | CD4IL17/CD4CD25FOXP3 ratio in the spleen [6] | CD4IL17/CD4CD25 ratio in the spleen [6] | ratio between CD4+IL17+ and CD4+CD25+FOXP3+ cells in adipose tissue [6] | activation of JNK2 [7] [%] | time at which the decrease in glucose levels (GTT, relative to time 0) reached statistical significance ([8]; day 30, 15 μg per os daily) [min] | time at which the decrease in glucose levels (GTT, relative to time 0) reached statistical significance ([8]; day 30, 45 μg per os daily) [min] | increase of AKT activation [9] [%]
1 | CCCCCCCCCCCCCCCCCCCCCCCCCC(=O)N[C@@H](CO[C@H]1O[C@H](CO)[C@H](O)[C@H](O)[C@H]1O)[C@H](O)[C@H](O)CCCCCCCCCCCCCC [αGalCer, α-Galctosyl-ceramide] | hepatotoxic | induced |  |  |  |  |  |  |  |  |  |  |  |  | 
2 | β-glucosylceramide [GC, reference compound] |  |  | not associated with liver injury | 330 | capable of activating | safe and biologically active | reversal | reduction | reduction | reduction | dose dependent shift towards tolerance | 60 | 120 | 120 | 43
